Among the data in publication PMC7770833, “Design, Synthesis, and Biological Evaluation of a Series of Oxazolone Carboxamides as a Novel Class of Acid Ceramidase Inhibitors” (Journal of Medicinal Chemistry, 2020) are IC50 and solubility values, retold here.

The target of series [1] is human ceramidase (hCDase). Conditions: in SKOV3 cells; cited from earlier work.
Series [2] in a line: Aqueous kinetic solubility assay. Type of series: physicochemical. Conditions: PBS pH 7.4. The procedure: The aqueous kinetic solubility was determined from a 10 mM CH3CN stock solution of the test compound in PBS at pH 7.4. The study was performed by the incubation of an aliquot of 10 mM CH3CN stock solution in PBS (pH 7.4) at a target concentration of 250 μM. The incubation was carried out under shaking at 25 °C for 1 h, followed by centrifugation at 21 100 × g for 30 min. The supernatant was analyzed by UPLC/MS for the quantification of the dissolved compound (in μM) by UV at a specific wavelength (215 nm). […] The UPLC/MS analyses were performed on a Waters Acquity UPLC/MS system consisting of SQDMS equipped with an ESI interface and a PDA detector. The PDA range was 210–400 nm. ESI in positive mode was used in the mass scan range 100–650 Da. The analyses were run on an Acquity UPLC BEH C18 column (50 × 2.1 mm ID, particle size 1.7 μm) with a VanGuard BEH C18 pre-column (5 × 2.1 mm ID, particle size 1.7 μm), using 10 mM NH4OAc in H2O at pH 5 adjusted with AcOH (A) and 10 mM NH4OAc in CH3CN/H2O (95:5) at pH 5 (B) as the mobile phase. The values are the mean of at least two independent experiments performed in two technical replicates.

For series [3], the system named is AC. Conditions: HaCaT cell lysates; cited from earlier work.
The subject of series [4] is AC. Conditions: HL-60 cell lysates; cited from earlier work.

Each structure is given as a SMILES string. In brackets after ≈: the same amount, converted by molar mass. Like-named read-outs stand apart in the source and are kept apart here. Where only a bound is given, the exact number is not on record here.

On to `COc1ccc(/C=C/C(=O)c2c(-c3ccccc3)c3cc(C)ccc3[nH]c2=O)cc1` [Ceranib-1], for which the IC50 (commonly the midpoint of a concentration-inhibition curve) in series [1] is 55 µM. `CN1CCC(c2cn(C(=O)NCCCCc3ccccc3)c(=O)o2)CC1` [Compound 12y, 5-(1-Methyl-4-piperidyl)-2-oxo-N-(4-phenylbutyl)oxazole-3-carboxamide]: the solubility (in general, the concentration that dissolves in the medium under given conditions) at 1 h in series [2] came to 248 µM (≈ 88.6 µg/mL). As for `CCCCCCCCCCCCCC(=O)N[C@H](CO)[C@H](O)c1ccc([N+](=O)[O-])cc1` [Compound B13], in series [3], the half-inhibitory concentration (IC50) is about 10 µM. For `CCCCCCCCCCCCCC(=O)N[C@H](C)[C@@H](O)c1ccccc1` [D-e-MAPP, D-erithro-2-(N-myristoylamino)-1-phenyl-1-propanol], in series [4], the IC50 was over 500 µM.
